Test results from patent US11584742B2 (MASARYKOVA UNIVERZITA, priority 2018, dated 2023).

The compounds below were run against T1, MRE11 (Homo sapiens, UniProt P49959) (assay: HTS nuclease assay (cleavage of CY5/BBQ-quenched 5' overhang DNA substrate)). Settings: in vitro HTS nuclease assay; 18 nM MRE11, 40 nM DNA substrate; analysis at t=4 h.
T1 sequence (P49959 1-708): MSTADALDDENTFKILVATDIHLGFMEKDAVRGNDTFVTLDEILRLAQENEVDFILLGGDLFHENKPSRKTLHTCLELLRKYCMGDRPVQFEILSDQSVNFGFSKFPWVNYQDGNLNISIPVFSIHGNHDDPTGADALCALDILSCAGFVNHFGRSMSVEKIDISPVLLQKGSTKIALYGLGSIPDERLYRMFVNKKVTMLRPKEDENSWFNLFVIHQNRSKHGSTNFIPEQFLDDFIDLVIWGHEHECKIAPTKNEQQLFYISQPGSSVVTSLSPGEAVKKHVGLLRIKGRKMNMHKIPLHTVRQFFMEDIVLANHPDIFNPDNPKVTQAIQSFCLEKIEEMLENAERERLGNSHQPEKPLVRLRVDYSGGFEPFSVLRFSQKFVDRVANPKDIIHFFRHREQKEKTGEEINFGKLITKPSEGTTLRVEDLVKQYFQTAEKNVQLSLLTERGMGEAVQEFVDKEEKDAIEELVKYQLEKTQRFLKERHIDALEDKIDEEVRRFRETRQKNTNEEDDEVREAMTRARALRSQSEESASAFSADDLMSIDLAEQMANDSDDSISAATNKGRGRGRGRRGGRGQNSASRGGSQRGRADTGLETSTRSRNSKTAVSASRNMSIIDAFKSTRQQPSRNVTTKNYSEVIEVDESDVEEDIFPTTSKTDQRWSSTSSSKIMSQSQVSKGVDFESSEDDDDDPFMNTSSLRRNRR
Type: biochemical
Description: DNA Substrate Preparation
The DNA substrate is prepared by mixing the oligonucleotides listed below in a 1:1 ratio to reach a final concentration of 6 μM in a buffer containing 50 mM Tris pH 7.5, 100 mM NaCl and 8 mM MgCl2.
This substrate is a 5′ overhang, which is a preferred substrate of MRE11. […] The fluorescence increases upon substrate cleavage by MRE11, when separation of the two labels occur.
The conditions of the assay are as follows:
Total reaction volume: 5 μL
DNA substrate concentration in the reaction: 40 nM
Inhibitor concentration range tested: 7 nM-50 μM
Each plate contains a series of high and low signal control wells, where no compound is added:
High signal: MRE11+DNA substrate
Low signal: DNA substrate only
These are used during data evaluation.
Two extra assay controls:
1) To check whether unwinding of DNA by the compounds alone occurs.
The DNA substrate [CY5+BBQ(650)] is mixed with the compounds with no protein present.
The CY5 single stranded oligo is mixed with the compounds with no protein present.
The layout of the plates is created by the in-house software (CZ-Openscreen Prague) and this information is transferred to the robotic HTS station.
The reaction is started by the addition of DNA and the reaction time is counted from that moment, including a 15 min delay. Ten timepoints are measured:
The assay data analysis was performed at t=4 h. This corresponds to the time when the reaction is close to its maximum.
The data analysis was performed using the in-house software to obtain IC50 for each compound.

| IC50 | Structure (SMILES) |
| --- | --- |
| 2 to 10 µM | N#C/C(=C\c1ccc(O)c(Br)c1)C(=O)Nc1nc(-c2ccccc2)cs1 [Preparative Example 202, (E)-3-(3-bromo-4-hydroxyphenyl)-2-cyano-N-(4-phenylthiazol-2-yl)acrylamide] |
| 2 to 10 µM | CC(C)(C)c1ccc(-c2csc(NC(=O)/C(C#N)=C/c3cc(Cl)c(O)c(Cl)c3)n2)cc1 [Preparative Example 224, (E)-N-(4-(4-(tert-butyl)phenyl)thiazol-2-yl)-2-cyano-3-(3,5-dichloro-4-hydroxyphenyl)acrylamide] |
| 10 to 90 µM | Cc1cc(/C=C(\C#N)C(=O)Nc2nc(-c3ccccn3)cs2)cc(C)c1O [Preparative Example 248, (E)-2-cyano-3-(4-hydroxy-3,5-dimethylphenyl)-N-(4-(pyridin-2-yl)thiazol-2-yl)acrylamide] |
| < 2 µM | N#C/C(=C\c1cc(Br)c(O)c(Br)c1)C(=O)Nc1nc(-c2ccccn2)cs1 [Preparative Example 249, (E)-2-cyano-3-(3,5-dibromo-4-hydroxyphenyl)-N-(4-(pyridin-2-yl)thiazol-2-yl)acrylamide] |
| 10 to 90 µM | Cc1cc(/C=C(\C#N)C(=O)Nc2nc(-c3ncccc3F)cs2)cc(C)c1O [Preparative Example 250, (E)-2-cyano-N-(4-(3-fluoropyridin-2-yl)thiazol-2-yl)-3-(4-hydroxy-3,5-dimethylphenyl)acrylamide] |
| < 2 µM | N#C/C(=C\c1cc(Br)c(O)c(Br)c1)C(=O)Nc1nc(-c2ncccc2F)cs1 [Preparative Example 251, (E)-2-cyano-3-(3,5-dibromo-4-hydroxyphenyl)-N-(4-(3-fluoropyridin-2-yl)thiazol-2-yl)acrylamide] |
| < 2 µM | N#C/C(=C\c1cc(Cl)c(O)c(Cl)c1)C(=O)Nc1nc(-c2ncccc2F)cs1 [Preparative Example 252, (E)-2-cyano-3-(3,5-dichloro-4-hydroxyphenyl)-N-(4-(3-fluoropyridin-2-yl)thiazol-2-yl)acrylamide] |
| 10 to 90 µM | N#C/C(=C\c1ccc(O)cc1Br)C(=O)Nc1nc(-c2ccccc2)cs1 [Preparative Example 256, (E)-3-(2-bromo-4-hydroxyphenyl)-2-cyano-N-(4-phenylthiazol-2-yl)acrylamide] |
| < 2 µM | N#C/C(=C\c1cc(O)c(O)c(Br)c1)C(=O)Nc1nc(-c2ccccc2)cs1 [Preparative Example 266, (E)-3-(3-bromo-4,5-dihydroxyphenyl)-2-cyano-N-(4-phenylthiazol-2-yl)acrylamide] |
| < 2 µM | N#C/C(=C\c1cc(O)c(O)c(F)c1)C(=O)Nc1nc(-c2ccccc2)cs1 [Preparative Example 267, (E)-2-cyano-3-(3-fluoro-4,5-dihydroxyphenyl)-N-(4-phenylthiazol-2-yl)acrylamide] |
| 10 to 90 µM | COc1cc(/C=C(\C#N)C(=O)Nc2nc(-c3ccccc3)cs2)cc(C#N)c1O [Preparative Example 268, (E)-2-cyano-3-(3-cyano-4-hydroxy-5-methoxyphenyl)-N-(4-phenylthiazol-2-yl)acrylamide] |
| < 2 µM | N#C/C(=C\c1cc(O)c(O)c(C#N)c1)C(=O)Nc1nc(-c2ccccc2)cs1 [Preparative Example 269, (E)-2-cyano-3-(3-cyano-4,5-dihydroxyphenyl)-N-(4-phenylthiazol-2-yl)acrylamide] |
| < 2 µM | N#C/C(=C\c1ccc(O)c(O)c1)C(=O)Nc1nc(-c2ncc(N3CCOCC3)cc2F)cs1 [Preparative Example 270, (E)-2-cyano-3-(3,4-dihydroxyphenyl)-N-(4-(3-fluoro-5-morpholinopyridin-2-yl)thiazol-2-yl)acrylamide] |
| < 2 µM | N#C/C(=C\c1cc(Br)c(O)c(Br)c1)C(=O)Nc1nc(-c2ncc(N3CCOCC3)cc2F)cs1 [Preparative Example 271, (E)-2-cyano-3-(3,5-dibromo-4-hydroxyphenyl)-N-(4-(3-fluoro-5-morpholinopyridin-2-yl)thiazol-2-yl)acrylamide] |
| < 2 µM | N#C/C(=C\c1cc(O)c(O)c(Br)c1)C(=O)Nc1nc(-c2ncc(N3CCOCC3)cc2F)cs1 [Preparative Example 272, (E)-3-(3-bromo-4,5-dihydroxyphenyl)-2-cyano-N-(4-(3-fluoro-5-morpholinopyridin-2-yl)thiazol-2-yl)acrylamide] |

More lines, now with the values behind:

| Structure (SMILES) | IC50 |
| --- | --- |
| N#C/C(=C\c1ccc(O)c(C(=O)O)c1)C(=O)Nc1nc(-c2ccccc2)cs1 [Preparative Example 254, (E)-5-(2-cyano-3-oxo-3-((4-phenylthiazol-2-yl)amino)prop-1-en-1-yl)-2-hydroxybenzoic acid] | 10 to 90 µM |
| N#C/C(=C\c1ccc(O)c(C(N)=O)c1)C(=O)Nc1nc(-c2ccccc2)cs1 [Preparative Example 255, (E)-5-(2-cyano-3-oxo-3-((4-phenylthiazol-2-yl)amino)prop-1-en-1-yl)-2-hydroxybenzamide] | 10 to 90 µM |
| COC(=O)c1ccc(/C=C(\C#N)C(=O)Nc2nc(-c3ccccc3)cs2)cc1O [Preparative Example 258, Methyl (E)-4-(2-cyano-3-oxo-3-((4-phenylthiazol-2-yl)amino)prop-1-en-1-yl)-2-hydroxybenzoate] | 2 to 10 µM |
| N#C/C(=C\c1ccc(C(=O)O)c(O)c1)C(=O)Nc1nc(-c2ccccc2)cs1 [Preparative Example 259, (E)-4-(2-cyano-3-oxo-3-((4-phenylthiazol-2-yl)amino)prop-1-en-1-yl)-2-hydroxybenzoic acid] | 2 to 10 µM |
| N#C/C(=C\c1ccc(O)c(CO)c1)C(=O)Nc1nc(-c2ccccc2)cs1 [Preparative Example 260, (E)-2-cyano-3-(4-hydroxy-3-(hydroxymethyl)phenyl)-N-(4-phenylthiazol-2-yl)acrylamide] | 2 to 10 µM |
| N#C/C(=C\c1ccc(O)c(O)c1)C(=O)Nc1nc(C(=O)c2ccccc2)cs1 [Preparative Example 261, (E)-N-(4-benzoylthiazol-2-yl)-2-cyano-3-(3,4-dihydroxyphenyl)acrylamide] | < 2 µM |
| N#C/C(=C\c1ccc(O)c(O)c1)C(=O)Nc1ncc(-c2cnccn2)s1 [Preparative Example 262, (E)-2-cyano-3-(3,4-dihydroxyphenyl)-N-(5-(pyrazin-2-yl)thiazol-2-yl)acrylamide] | 10 to 90 µM |
| N#C/C(=C\c1ccc(O)c(O)c1)C(=O)Nc1nc(-c2ccccn2)c(-c2cnccn2)s1 [Preparative Example 263, (E)-2-cyano-3-(3,4-dihydroxyphenyl)-N-(5-(pyrazin-2-yl)-4-(pyridin-2-yl)thiazol-2-yl)acrylamide] | < 2 µM |
| N#C/C(=C\c1ccc(O)c(O)c1)C(=O)Nc1nc(-c2cccc(N3CCOCC3)n2)cs1 [Preparative Example 264, (E)-2-cyano-3-(3,4-dihydroxyphenyl)-N-(4-(6-morpholinopyridin-2-yl)thiazol-2-yl)acrylamide] | 2 to 10 µM |
| N#C/C(=C\c1ccc(O)c(O)c1)C(=O)Nc1nc(-c2ccc(N3CCOCC3)nc2)cs1 [Preparative Example 265, (E)-2-cyano-3-(3,4-dihydroxyphenyl)-N-(4-(6-morpholinopyridin-3-yl)thiazol-2-yl)acrylamide] | 2 to 10 µM |
| N#C/C(=C\c1ccc(O)c(O)c1)C(=O)Nc1nc(Cc2ccccc2)cs1 [Preparative Example 273, (E)-N-(4-benzylthiazol-2-yl)-2-cyano-3-(3,4-dihydroxyphenyl)acrylamide] | < 2 µM |
